Like-named read-outs stand apart in the source and are kept apart here.

Data on ten compounds can be found in patent US11325937B2, “Glycoside compound and preparation method therefor, composition, application, and intermediate” (SHANGHAI HUTCHISON PHARMACEUTICALS LIMITED, priority 2018, dated 2022).

In the assay the test system is VEGF-A mRNA expression in macrophages (RAW264.7). The assay can be described thus: In vitro macrophage experiment: activity of compounds to promote VEGF-A mRNA expression (RT-qPCR). In kind it is cell-based. As to conditions: Mus musculus, read-out: Expression level of VEGF-A mRNA. From the text: 1.1. Specific steps for activity screening: 1-10×10^6 macrophages (RAW264.7) in logarithmic growth phase were transferred to a cell culture plate. The test compounds (Compounds TG-001, TG-002, TG-003, TG-004, TG-005, TG-006, TG-007, TG-008, TG-009, TG-010, TG-011, TG-012, TG-013, TG-014, TG-015, TG-016, TG-017, TG-018, TG-019, TG-020, TG-021, TG-022, TG-023, TG-024, TG-025, TG-026, TG-027, TG-028, TG-029, TG-030, TG-031, TG-032, TG-033, TG-034, TG-035, TG-036, TG-037, TG-045, TG-039, TG-040 TG-041, TG-042, TG-043, TG-044, TG-045, TG-052, TG-053, TG-054, TG-047, TG-048, TG-046, TG-049, TG-050, TG-051, TG-055 and TG-056) were respectively diluted into various concentrations, and separately added to the cell culture plate containing macrophage. The cells were cultured for 3 h in a complete medium (RPMI 1640 medium:fetal bovine serum:tri-resistance screening agent (i.e. penicillin-streptomycin-gentamicin, Beijing Leagene Biotechnology Co., Ltd.)=89:10:1 based on volume) in a cell incubator at 37° C. and 5% CO2. The cells were lyzed by Trizol (Beijing ComWin Biotech Co., Ltd) to extract RNA, and the RNA concentration was measured using a microvolume nucleic acid and protein analyzer (Nanodrop2000c). The required volume V of RNA was calculated according to the RNA concentration, and the RNA reverse transcription reaction system was prepared according to Table 1. Then RNA reverse transcription (cDNA synthesis) (RT Easy™ I (For first-strand cDNA synthesis) Reverse Transcription Kit, Chengdu ForeGene Biotechnology Co., Ltd.) was carried out according to the conditions described in Table 2. The resulting cDNA was used to prepare a fluorescence quantitative PCR reaction solution according to Table 3. The fluorescence quantitative PCR reaction conditions were set according to Table 4, and the fluorescence quantitative PCR reaction (Real time PCR Easy™-SYBR Green Fluorescence Quantification Kit, Chengdu ForeGene Biotechnology Co., Ltd.) was performed using cDNA from the reverse transcription reaction as a template. The relative expression level 2^−ΔΔCt of the target gene was calculated from the Ct value of each sample with the blank control group as a control and β-Actin as an internal reference.
Based on the maximum level of VEGF-A mRNA expression promoted by a drug at a certain concentration, the activity of the drug was determined. The expression level of VEGF-A mRNA in macrophages was defined as 1 when no drug was added. Using a traditional Chinese medicine injection Salvianolate that is used in the treatment of Cardio-cerebrovascular disease and promotes a maximum level of VEGF-A mRNA expression of 6 in macrophages (the results are shown in Table 5) as a judgment standard, the compound promoting a maximum level of VEGF-A mRNA expression of 4 or more in macrophage was a target compound. That is, when the maximum level of VEGF-A mRNA expression in macrophages promoted by the test compound is over 4-fold higher than the expression level of VEGF-A mRNA in macrophages without the addition of the test compound, the test compound was a preliminary target compound promoting angiogenesis.

The mark [1] stands for this setting: 1 μM, RAW264.7 macrophages, 3 h, relative expression 2^-ΔΔCt, no drug = 1.
The mark [2] stands for this setting: 0.1 mM, RAW264.7 macrophages, 3 h, relative expression, no drug = 1.
Setting [3] is: 0.5 mM, RAW264.7 macrophages, 3 h, relative expression, no drug = 1.
Setting [4] is: 1 mM, RAW264.7 macrophages, 3 h, relative expression, no drug = 1.
Setting [5] is: 2 mM, RAW264.7 macrophages, 3 h, relative expression, no drug = 1.
The mark [6] stands for this setting: 3 mM, RAW264.7 macrophages, 3 h, relative expression, no drug = 1.

As for `COc1ccc(CCCCCO[C@@H]2O[C@H](CO)[C@@H](O)[C@H](O)[C@H]2O)cc1` [TG-005], the fold induction at 1 µM under setting [1] stood at 0.91. Further, the fold induction at 100 µM under setting [2] came to 0.36. The fold induction at 500 µM under setting [3] was determined as 2.64. The fold induction at 1000 µM under setting [4] amounted to 1.15. Also, the fold induction at 2000 µM under setting [5] was 1.3. Also, under setting [6], the fold induction at 3000 µM is 2.39.
Take `CC(C)Oc1ccc(CCCCO[C@@H]2O[C@H](CO)[C@@H](O)[C@H](O)[C@H]2O)cc1` [TG-038]: the fold induction at 1 µM under setting [1] was 0.79. Besides, the fold induction at 100 µM under setting [2] came out at 1.06. In addition, under setting [3], the fold induction at 500 µM was found to be 0.96. Besides, the fold induction at 1000 µM under setting [4] was 1.71. Under setting [5], the fold induction at 2000 µM amounted to 1.32. Moreover, the fold induction at 3000 µM under setting [6] came to 1.29.
With `COc1ccc(N(CCCO[C@@H]2O[C@H](CO)[C@@H](O)[C@H](O)[C@H]2O)C(=O)OCc2ccccc2)cc1` [TG-035], under “RAW264.7, 3 h”, the fold induction at 1 µM came to 1.66, the fold induction at 100 µM amounted to 0.44, the fold induction at 500 µM amounted to 1.72 and the fold induction at 1000 µM turned out to be 1.06. Besides, for the setting “RAW264.7, 3 h”, the fold induction at 2000 µM was determined as 0.55 and the fold induction at 3000 µM was 0.2.
On to `COc1ccc(CN(CCO[C@@H]2O[C@H](CO)[C@@H](O)[C@H](O)[C@H]2O)C(=O)OCc2ccccc2)cc1` [TG-034], for which, under “RAW264.7, 3 h”, the fold induction at 1 µM was 1.36, the fold induction at 100 µM is 1.32, the fold induction at 500 µM is 4.44 and the fold induction at 1000 µM worked out at 2.93. Moreover, where the note is “RAW264.7, 3 h”, the fold induction at 2000 µM amounted to 7.16 and the fold induction at 3000 µM was 5.43.
With `COc1ccc(CCCCO[C@H]2O[C@H](CO)[C@@H](O)[C@H](O)[C@H]2O)cc1` [TG-046], under setting [1], the fold induction at 1 µM is 1.86. Further, the fold induction at 100 µM under setting [2] came to 1.96. Besides, the fold induction at 500 µM under setting [3] worked out at 2.14. For the same compound, the fold induction at 1000 µM under setting [4] came to 2.27. Also, the fold induction at 2000 µM under setting [5] was 2.25. Also, under setting [6], the fold induction at 3000 µM is 5.32.
Turning to `COc1ccc(OCCCO[C@@H]2O[C@H](CO)[C@@H](O)[C@H](O)[C@H]2O)cc1` [TG-031], under “RAW264.7, 3 h”, the fold induction at 1 µM amounted to 0.2, the fold induction at 100 µM amounted to 0.18, the fold induction at 500 µM stood at 0.11 and the fold induction at 1000 µM came to 2.57. Also, under “RAW264.7, 3 h”, the fold induction at 2000 µM was found to be 1.39 and the fold induction at 3000 µM stood at 0.7.
For the compound `COc1cc(CCCCO[C@@H]2O[C@H](CO)[C@@H](O)[C@H](O)[C@H]2O)cc(OC)c1` [TG-002], the fold induction at 1 µM under setting [1] was 1.71. Moreover, under setting [2], the fold induction at 100 µM was 1.68. Moreover, under setting [3], the fold induction at 500 µM was determined as 1.88. Also, under setting [4], the fold induction at 1000 µM is 1.21. For the same compound, the fold induction at 2000 µM under setting [5] was 0.44. The fold induction at 3000 µM under setting [6] amounted to 0.73.
As for `OC[C@H]1O[C@@H](OCCCCc2ccc(OCc3ccccc3)cc2)[C@H](O)[C@@H](O)[C@@H]1O` [TG-013], the fold induction at 1 µM under setting [1] was 1.44. For the same compound, the fold induction at 100 µM under setting [2] amounted to 2.51. Also, the fold induction at 500 µM under setting [3] stood at 3.98. Besides, under setting [4], the fold induction at 1000 µM stood at 3.3. Besides, the fold induction at 2000 µM under setting [5] came to 3.23. In addition, under setting [6], the fold induction at 3000 µM came to 2.44.
In the case of `OC[C@H]1O[C@@H](OCCCCc2ccc(OCc3cccc(F)c3)cc2)[C@H](O)[C@@H](O)[C@@H]1O` [TG-027], the fold induction at 1 µM under setting [1] turned out to be 1.66. Further, the fold induction at 100 µM under setting [2] turned out to be 6.36. Further, the fold induction at 500 µM under setting [3] worked out at 3.83. Besides, the fold induction at 1000 µM under setting [4] was found to be 3.93. For the same compound, under setting [5], the fold induction at 2000 µM is 1.07. In addition, under setting [6], the fold induction at 3000 µM came to 0.43.
Regarding `C=CCOc1ccc(CCCCO[C@@H]2O[C@H](CO)[C@@H](O)[C@H](O)[C@H]2O)cc1` [TG-015], under setting [1], the fold induction at 1 µM stood at 1.58. Besides, the fold induction at 100 µM under setting [2] worked out at 1.26. For the same compound, under setting [3], the fold induction at 500 µM came to 2.18. Besides, under setting [4], the fold induction at 1000 µM is 4.3. In addition, the fold induction at 2000 µM under setting [5] came to 1.65. The fold induction at 3000 µM under setting [6] was 1.53.
